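Five concentrations, 48 hours, 96-well plates. GI50 = concentration required for 50% inhibition of growth.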 Activity calls are given as the source filed them. Cut-off read from the data, not from the text of the source: active = GI50 up to about 1.1 µM and inactive = higher.
How the values were obtained:
Experiment in all cases: growth of human tumour cells (NCI), 48 h
786-0 = system: 786-0
ACHN = system: ACHN
COLO 205 = system: COLO 205
LOX IMVI = system: LOX IMVI
MDA-MB-231 = system: MDA-MB-231
MDA-MB-435 = system: MDA-MB-435
MDA-N = system: MDA-N
Malme-3M = system: Malme-3M
NCI-H522 = system: NCI-H522
OVCAR-3 = system: OVCAR-3
PC-3 = system: PC-3
RXF 393 = system: RXF 393
SF-295 = system: SF-295
SK-MEL-28 = system: SK-MEL-28
SK-MEL-5 = system: SK-MEL-5
SN12C = system: SN12C
SW-620 = system: SW-620
U-251 = system: U-251
UACC-257 = system: UACC-257
UO-31 = system: UO-31

Measured: GI50

Fc1ccc2c(c1)nc1n2C(c2c(F)cccc2F)SC1 (stereo not given)
inactive: 786-0 66.7 µM | ACHN > 100 µM | COLO 205 80.2 µM | LOX IMVI 45.7 µM | MDA-MB-231 91.8 µM | MDA-MB-435 49.9 µM | MDA-N 28.2 µM | Malme-3M 55.1 µM | NCI-H522 30.1 µM | OVCAR-3 28.6 µM | PC-3 51.6 µM | RXF 393 62.2 µM | SF-295 30 µM | SK-MEL-28 > 100 µM | SK-MEL-5 21.8 µM | SN12C 70.8 µM | SW-620 69.3 µM | U-251 57 µM | UACC-257 52.7 µM | UO-31 25 µM

CCOC(=O)Oc1cc2ccsc2c2c1c1ccccc1n2C(=O)OCC
inactive: 786-0 34.1 µM | ACHN 28.3 µM | COLO 205 > 100 µM | LOX IMVI > 100 µM | MDA-MB-231 35.6 µM | MDA-MB-435 68.9 µM | MDA-N 31 µM | Malme-3M 33.7 µM | NCI-H522 32.1 µM | OVCAR-3 70.1 µM | PC-3 38.2 µM | RXF 393 22.2 µM | SF-295 36.1 µM | SK-MEL-28 > 100 µM | SK-MEL-5 63.7 µM | SN12C 37.8 µM | SW-620 94.8 µM | U-251 45 µM | UACC-257 91 µM | UO-31 24.2 µM

COc1cc(O)c2c(=O)c(OC)c(-c3ccc4c(c3)OCO4)oc2c1OC
inactive: 786-0 38.9 µM | ACHN > 50 µM | COLO 205 > 50 µM | LOX IMVI > 50 µM | MDA-MB-231 32 µM | MDA-MB-435 > 50 µM | MDA-N > 50 µM | Malme-3M > 50 µM | NCI-H522 > 50 µM | OVCAR-3 > 50 µM | PC-3 > 50 µM | RXF 393 18.9 µM | SF-295 29 µM | SK-MEL-28 > 50 µM | SK-MEL-5 22.5 µM | SN12C > 50 µM | SW-620 > 50 µM | U-251 12.9 µM | UACC-257 > 50 µM | UO-31 > 50 µM

CCOC(=O)c1sc2nc(SC)nc3c2c1NCN3c1ccc(F)c(F)c1
inactive: 786-0 4.82 µM | ACHN 6.97 µM | COLO 205 > 100 µM | LOX IMVI 6.59 µM | MDA-MB-231 13 µM | MDA-MB-435 6.81 µM | MDA-N 18.3 µM | Malme-3M 7.59 µM | NCI-H522 21.1 µM | OVCAR-3 5.57 µM | PC-3 16.4 µM | RXF 393 6.43 µM | SF-295 24.2 µM | SK-MEL-28 23.7 µM | SK-MEL-5 > 71.9 µM | SN12C 30.5 µM | SW-620 10 µM | U-251 9.27 µM | UACC-257 > 45.8 µM | UO-31 22.1 µM

COC(=O)c1ccc2c(c1)sc1nc(-c3ccc(OC)cc3)cn12
inactive: 786-0 > 100 µM | ACHN > 100 µM | COLO 205 31.9 µM | LOX IMVI > 100 µM | MDA-MB-231 > 100 µM | MDA-MB-435 42.8 µM | MDA-N 78.9 µM | Malme-3M > 100 µM | NCI-H522 62.2 µM | OVCAR-3 > 100 µM | PC-3 > 100 µM | RXF 393 69.8 µM | SF-295 > 100 µM | SK-MEL-28 > 100 µM | SK-MEL-5 21.1 µM | SN12C > 100 µM | SW-620 > 100 µM | U-251 31.7 µM | UACC-257 49 µM | UO-31 > 100 µM

Cc1ccc2nc3[nH]nc(N)c3nc2c1
inactive: 786-0 > 100 µM | ACHN 99.3 µM | COLO 205 > 100 µM | LOX IMVI > 100 µM | MDA-MB-231 > 100 µM | MDA-MB-435 > 100 µM | MDA-N 51.1 µM | Malme-3M > 100 µM | NCI-H522 > 100 µM | OVCAR-3 > 100 µM | PC-3 93.3 µM | RXF 393 60 µM | SF-295 > 100 µM | SK-MEL-28 > 100 µM | SK-MEL-5 > 100 µM | SN12C > 100 µM | SW-620 > 100 µM | U-251 > 100 µM | UACC-257 > 100 µM | UO-31 52 µM

COc1ccc(Oc2nc3cc(C(F)(F)F)ccc3nc2C(C)C)cc1
inactive: 786-0 36 µM | ACHN 26.2 µM | COLO 205 16 µM | LOX IMVI 15.3 µM | MDA-MB-231 24.7 µM | MDA-MB-435 30.1 µM | MDA-N 35.4 µM | Malme-3M 24.7 µM | NCI-H522 19.1 µM | OVCAR-3 29.6 µM | PC-3 41.6 µM | RXF 393 15.8 µM | SF-295 21.2 µM | SK-MEL-28 48 µM | SK-MEL-5 22.2 µM | SN12C 24.5 µM | SW-620 30.8 µM | U-251 23.1 µM | UACC-257 26.1 µM | UO-31 32.6 µM

O=c1[nH]nc(-c2ccccc2)n1-n1cccc1
inactive: 786-0 > 100 µM | ACHN > 100 µM | COLO 205 > 100 µM | LOX IMVI > 100 µM | MDA-MB-231 > 100 µM | MDA-MB-435 > 100 µM | MDA-N > 100 µM | Malme-3M > 100 µM | NCI-H522 > 100 µM | OVCAR-3 > 100 µM | PC-3 > 100 µM | RXF 393 > 100 µM | SF-295 > 100 µM | SK-MEL-28 > 100 µM | SK-MEL-5 > 100 µM | SN12C > 100 µM | SW-620 > 100 µM | U-251 > 100 µM | UACC-257 > 100 µM | UO-31 > 100 µM

O=C(CC(Cc1ccccc1)c1ccc(Oc2ccccc2)cc1)Nc1cccc(Cl)c1 (stereo not given)
inactive: 786-0 5.43 µM | ACHN 3.65 µM | COLO 205 6 µM | LOX IMVI 3.73 µM | MDA-MB-231 10.8 µM | MDA-MB-435 4.32 µM | MDA-N 4.47 µM | Malme-3M 15 µM | NCI-H522 3.1 µM | OVCAR-3 3.86 µM | PC-3 3.7 µM | RXF 393 5.41 µM | SF-295 3.24 µM | SK-MEL-28 9.16 µM | SK-MEL-5 11.3 µM | SN12C 4.22 µM | SW-620 4.42 µM | U-251 3.95 µM | UACC-257 11 µM | UO-31 4.24 µM

O=C1NC(=O)C2C3C=CC(C12)C1C2C(=O)NC(=O)C2C31 (stereo not given)
inactive: 786-0 682 µM | ACHN > 250 µM | COLO 205 82.4 µM | LOX IMVI 241 µM | MDA-MB-231 > 250 µM | MDA-MB-435 > 1000 µM | MDA-N 701 µM | Malme-3M 187 µM | NCI-H522 151 µM | OVCAR-3 242 µM | PC-3 217 µM | RXF 393 220 µM | SF-295 174 µM | SK-MEL-28 222 µM | SK-MEL-5 195 µM | SN12C 192 µM | SW-620 167 µM | U-251 203 µM | UACC-257 238 µM | UO-31 211 µM

From ChEMBL document CHEMBL1201862, “PubChem BioAssay data set” (2004)
